Measurements taken from ChEMBL document CHEMBL2417394, “Exquisite selectivity for human toll-like receptor 8 in substituted furo[2,3-c]quinolines” (J Med Chem, 2013).
Calls of active or inactive are those of the source. The calls are words filed in the database; no cut-off is given here.

Target: T1, Nucleotide-binding oligomerization domain-containing protein 1 (Homo sapiens) (UniProt Q9Y239)
T1 sequence (whole entry): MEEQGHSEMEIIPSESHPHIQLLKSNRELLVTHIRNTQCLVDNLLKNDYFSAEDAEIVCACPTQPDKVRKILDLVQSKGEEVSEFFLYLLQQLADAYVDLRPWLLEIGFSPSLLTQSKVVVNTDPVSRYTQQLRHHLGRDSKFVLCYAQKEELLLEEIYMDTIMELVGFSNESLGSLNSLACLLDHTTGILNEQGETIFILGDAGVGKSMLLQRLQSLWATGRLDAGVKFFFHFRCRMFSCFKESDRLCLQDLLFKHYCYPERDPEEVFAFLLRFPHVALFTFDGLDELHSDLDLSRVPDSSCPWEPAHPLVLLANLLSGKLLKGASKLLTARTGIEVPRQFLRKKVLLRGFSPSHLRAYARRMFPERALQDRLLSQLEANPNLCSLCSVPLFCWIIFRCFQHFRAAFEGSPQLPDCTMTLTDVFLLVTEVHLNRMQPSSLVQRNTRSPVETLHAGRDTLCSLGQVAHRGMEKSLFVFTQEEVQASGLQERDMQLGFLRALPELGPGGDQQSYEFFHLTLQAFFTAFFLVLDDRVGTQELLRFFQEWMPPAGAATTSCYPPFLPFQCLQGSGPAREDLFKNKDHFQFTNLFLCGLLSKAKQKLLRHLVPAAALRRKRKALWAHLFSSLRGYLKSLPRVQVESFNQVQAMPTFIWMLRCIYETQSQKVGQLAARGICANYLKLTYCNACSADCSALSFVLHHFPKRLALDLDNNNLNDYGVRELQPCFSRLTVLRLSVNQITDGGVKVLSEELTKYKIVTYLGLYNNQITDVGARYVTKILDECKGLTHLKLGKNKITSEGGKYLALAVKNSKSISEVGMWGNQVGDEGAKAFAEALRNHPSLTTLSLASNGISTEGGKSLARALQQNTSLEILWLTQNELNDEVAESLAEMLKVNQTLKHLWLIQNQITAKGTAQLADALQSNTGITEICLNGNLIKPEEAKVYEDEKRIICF
Test: Modulation of NOD1 (unknown origin)

For `NCCc1cc2c(o1)c(N)nc1ccccc12`, the Activity was “Active”.
